Test results published in patent publication US20100183745A1, “Electrochemical Device for Biocide Treatment in Agricultural Applications” (Industrie De Nora S.P.A., priority 2007, published 2010).

Tested on: Erwinia amylovora
Assay: SEM analysis of bacterial colonies on treated pear leaves
Assay type: in vivo, pear trees of white William variety
Conditions: leaves apparently not affected by the disease; copious bacterial colonies prior to treatment; once a day during 10 days
Excerpt: The feed vessel was loaded with a solution at neutral pH containing 1 g/l of NaCl and 2.5 g/l of KCl, and the service vessel was loaded with a tap-water stream whose flow-rate was controlled by a downstream UV probe, calibrated so as to detect the concentration of outlet hypochlorous acid by adsorption at 292 nm adjusting the same at a value comprised between 0.10 and 0.15 g/l at sprinkling stage. The outflow of electrolysis cell to the service vessel was adjusted at a flow-rate of 20 l/h.
The device regulated in this way was used for sprinkling the leaves of 50 pear trees of white William variety affected with fire blight, a disease induced by Erwinia amylovora bacterium causing stems, leaves and flowers of the plant to turn brown in localised groups. […] Each treatment was repeated once a day, during 10 subsequent days.

## O.O.O.O.O.O=S(=O)([O-])[O-].[Cu+2] [cupric sulphate]
  bacterial colonies on leaves by SEM analysis after the treatment: substantial reduction of the phenomenon, still showed the signs of traces of bacterial colonies
